Legend:
[1] = test system: Tyrosine-protein kinase ABL1 (Homo sapiens), P00519 [F317L]; conditions: Compound concentration 1000.0 nM
[2] = biological target: Tyrosine-protein kinase ABL1 (Homo sapiens) (UniProt P00519); conditions: Compound concentration 1000.0 nM
[3] = test system: ALK tyrosine kinase receptor (Homo sapiens), Q9UM73 [C1156Y]; conditions: Compound concentration 1000.0 nM
[4] = biological target: Bone morphogenetic protein receptor type-1A (Homo sapiens) (UniProt P36894); conditions: Compound concentration 1000.0 nM
[5] = biological target: Bone morphogenetic protein receptor type-2 (Homo sapiens) (UniProt Q13873); conditions: Compound concentration 1000.0 nM
[6] = biological target: Calcium/calmodulin-dependent protein kinase type 1 (Homo sapiens) (UniProt Q14012); conditions: Compound concentration 1000.0 nM
[7] = biological target: Calcium/calmodulin-dependent protein kinase type II subunit gamma (Homo sapiens) (UniProt Q13555); conditions: Compound concentration 1000.0 nM
[8] = biological target: Cyclin-dependent kinase 4 (Homo sapiens) (UniProt P11802); conditions: Compound concentration 1000.0 nM
[9] = biological target: Epithelial discoidin domain-containing receptor 1 (Homo sapiens) (UniProt Q08345); conditions: Compound concentration 1000.0 nM
[10] = biological target: Serine/threonine-protein kinase MRCK gamma (Homo sapiens) (UniProt Q6DT37); conditions: Compound concentration 1000.0 nM
[11] = biological target: Dual specificity tyrosine-phosphorylation-regulated kinase 2 (Homo sapiens) (UniProt Q92630); conditions: Compound concentration 1000.0 nM
[12] = biological target: Epidermal growth factor receptor (Homo sapiens) (UniProt P00533); conditions: Compound concentration 1000.0 nM
[13] = test system: Epidermal growth factor receptor (Homo sapiens), P00533 [UNDEFINED MUTATION]; conditions: Compound concentration 1000.0 nM
[14] = test system: Epidermal growth factor receptor (Homo sapiens), P00533 [T790M]; conditions: Compound concentration 1000.0 nM
[15] = biological target: Receptor tyrosine-protein kinase erbB-3 (Homo sapiens) (UniProt P21860); conditions: Compound concentration 1000.0 nM
[16] = biological target: Mitogen-activated protein kinase 15 (Homo sapiens) (UniProt Q8TD08); conditions: Compound concentration 1000.0 nM
[17] = test system: Receptor-type tyrosine-protein kinase FLT3 (Homo sapiens), P36888 [UNDEFINED MUTATION]; conditions: Compound concentration 1000.0 nM
[18] = biological target: Tyrosine-protein kinase Fyn (Homo sapiens) (UniProt P06241); conditions: Compound concentration 1000.0 nM
[19] = biological target: Rhodopsin kinase GRK7 (Homo sapiens) (UniProt Q8WTQ7); conditions: Compound concentration 1000.0 nM
[20] = biological target: Homeodomain-interacting protein kinase 3 (Homo sapiens) (UniProt Q9H422); conditions: Compound concentration 1000.0 nM
[21] = biological target: Tyrosine-protein kinase ITK/TSK (Homo sapiens) (UniProt Q08881); conditions: Compound concentration 1000.0 nM
[22] = biological target: Tyrosine-protein kinase JAK1 (Homo sapiens) (UniProt P23458); conditions: Compound concentration 1000.0 nM
[23] = biological target: Mitogen-activated protein kinase kinase kinase 11 (Homo sapiens) (UniProt Q16584); conditions: Compound concentration 1000.0 nM
[24] = biological target: Myosin light chain kinase family member 4 (Homo sapiens) (UniProt Q86YV6); conditions: Compound concentration 1000.0 nM
[25] = biological target: Serine/threonine-protein kinase Nek7 (Homo sapiens) (UniProt Q8TDX7); conditions: Compound concentration 1000.0 nM
[26] = biological target: Serine/threonine-protein kinase PAK 1 (Homo sapiens) (UniProt Q13153); conditions: Compound concentration 1000.0 nM
[27] = biological target: Cyclin-dependent kinase 16 (Homo sapiens) (UniProt Q00536); conditions: Compound concentration 1000.0 nM
[28] = biological target: 3-phosphoinositide-dependent protein kinase 1 (Homo sapiens) (UniProt O15530); conditions: Compound concentration 1000.0 nM
[29] = biological target: Phosphatidylinositol 3-kinase C2 domain-containing subunit gamma (Homo sapiens) (UniProt O75747); conditions: Compound concentration 1000.0 nM
[30] = biological target: 1-phosphatidylinositol 3-phosphate 5-kinase (Homo sapiens) (UniProt Q9Y2I7); conditions: Compound concentration 1000.0 nM
[31] = biological target: Serine/threonine-protein kinase pim-3 (Homo sapiens) (UniProt Q86V86); conditions: Compound concentration 1000.0 nM
[32] = biological target: Phosphatidylinositol 5-phosphate 4-kinase type-2 beta (Homo sapiens) (UniProt P78356); conditions: Compound concentration 1000.0 nM
[33] = biological target: Serine/threonine-protein kinase PLK3 (Homo sapiens) (UniProt Q9H4B4); conditions: Compound concentration 1000.0 nM
[34] = biological target: Protein kinase C delta type (Homo sapiens) (UniProt Q05655); conditions: Compound concentration 1000.0 nM
[35] = biological target: Protein kinase C epsilon type (Homo sapiens) (UniProt Q02156); conditions: Compound concentration 1000.0 nM
[36] = test system: Proto-oncogene tyrosine-protein kinase receptor Ret (Homo sapiens), P07949 [V804L]; conditions: Compound concentration 1000.0 nM
[37] = biological target: Mitogen-activated protein kinase kinase kinase 7 (Homo sapiens) (UniProt O43318); conditions: Compound concentration 1000.0 nM
[38] = biological target: Testis-specific serine/threonine-protein kinase 1 (Homo sapiens) (UniProt Q9BXA7); conditions: Compound concentration 1000.0 nM
[39] = biological target: Testis-specific serine/threonine-protein kinase 3 (Homo sapiens) (UniProt Q96PN8); conditions: Compound concentration 1000.0 nM
[40] = biological target: Serine/threonine-protein kinase 32C (Homo sapiens) (UniProt Q86UX6); conditions: Compound concentration 1000.0 nM
[41] = biological target: 5-hydroxytryptamine receptor 1A (Homo sapiens) (UniProt P08908); conditions: Compound concentration 10.0 uM
[42] = biological target: Kappa-type opioid receptor (Homo sapiens) (UniProt P41145); conditions: Compound concentration 10.0 uM
[43] = biological target: GABA-A receptor; anion channel (Rattus norvegicus) (UniProt O09028+P15431+P18506+P18508+P19969+P20236+P23574+P23576+P28471+P28473+P30191+P62813+P63079+P63138+Q91ZM7+Q9ES14); conditions: Compound concentration 10.0 uM

Chain of Bone morphogenetic protein receptor type-2 (Homo sapiens) (Q13873 whole entry): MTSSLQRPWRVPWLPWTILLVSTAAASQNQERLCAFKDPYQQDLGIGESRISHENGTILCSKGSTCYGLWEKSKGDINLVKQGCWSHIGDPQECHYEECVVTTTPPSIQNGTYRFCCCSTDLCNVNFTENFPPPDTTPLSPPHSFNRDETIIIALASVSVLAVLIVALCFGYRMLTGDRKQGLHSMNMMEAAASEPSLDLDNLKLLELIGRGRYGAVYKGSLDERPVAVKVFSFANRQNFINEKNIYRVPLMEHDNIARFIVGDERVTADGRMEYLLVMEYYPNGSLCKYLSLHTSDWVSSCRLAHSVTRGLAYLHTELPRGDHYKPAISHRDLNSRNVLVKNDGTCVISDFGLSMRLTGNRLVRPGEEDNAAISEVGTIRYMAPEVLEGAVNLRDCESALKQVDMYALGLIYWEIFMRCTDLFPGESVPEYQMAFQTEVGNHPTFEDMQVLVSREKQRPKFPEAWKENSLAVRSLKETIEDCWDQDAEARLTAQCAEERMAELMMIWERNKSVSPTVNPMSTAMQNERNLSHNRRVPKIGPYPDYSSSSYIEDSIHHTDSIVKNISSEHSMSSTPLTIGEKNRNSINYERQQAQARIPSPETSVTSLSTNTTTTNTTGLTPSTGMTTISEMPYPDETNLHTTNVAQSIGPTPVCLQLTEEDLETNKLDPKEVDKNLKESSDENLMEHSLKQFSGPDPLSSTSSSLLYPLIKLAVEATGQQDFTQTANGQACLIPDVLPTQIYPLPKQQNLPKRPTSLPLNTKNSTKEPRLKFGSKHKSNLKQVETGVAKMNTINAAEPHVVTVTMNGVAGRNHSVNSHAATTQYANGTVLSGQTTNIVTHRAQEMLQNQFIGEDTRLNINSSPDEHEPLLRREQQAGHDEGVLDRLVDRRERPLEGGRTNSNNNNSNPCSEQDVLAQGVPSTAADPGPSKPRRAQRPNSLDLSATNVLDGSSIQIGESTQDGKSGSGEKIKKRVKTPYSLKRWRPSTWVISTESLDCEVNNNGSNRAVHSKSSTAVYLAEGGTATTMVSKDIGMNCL
Chain of Rhodopsin kinase GRK7 (Homo sapiens) (Q8WTQ7 whole entry): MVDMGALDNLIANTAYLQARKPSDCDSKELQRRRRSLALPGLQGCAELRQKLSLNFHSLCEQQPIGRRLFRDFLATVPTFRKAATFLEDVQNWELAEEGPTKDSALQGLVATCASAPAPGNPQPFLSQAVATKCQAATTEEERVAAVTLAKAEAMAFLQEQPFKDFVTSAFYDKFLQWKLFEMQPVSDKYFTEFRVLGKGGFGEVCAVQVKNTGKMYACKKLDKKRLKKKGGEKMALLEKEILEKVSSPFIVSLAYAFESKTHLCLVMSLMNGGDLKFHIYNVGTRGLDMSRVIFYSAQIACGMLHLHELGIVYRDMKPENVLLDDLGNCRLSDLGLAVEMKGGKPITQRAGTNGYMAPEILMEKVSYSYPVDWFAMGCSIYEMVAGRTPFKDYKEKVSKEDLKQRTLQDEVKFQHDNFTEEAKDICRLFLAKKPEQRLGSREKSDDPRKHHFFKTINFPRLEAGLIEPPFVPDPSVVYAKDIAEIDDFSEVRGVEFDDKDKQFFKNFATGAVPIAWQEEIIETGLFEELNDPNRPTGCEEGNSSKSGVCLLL
Chain of Tyrosine-protein kinase ABL1 (Homo sapiens) (P00519 whole entry): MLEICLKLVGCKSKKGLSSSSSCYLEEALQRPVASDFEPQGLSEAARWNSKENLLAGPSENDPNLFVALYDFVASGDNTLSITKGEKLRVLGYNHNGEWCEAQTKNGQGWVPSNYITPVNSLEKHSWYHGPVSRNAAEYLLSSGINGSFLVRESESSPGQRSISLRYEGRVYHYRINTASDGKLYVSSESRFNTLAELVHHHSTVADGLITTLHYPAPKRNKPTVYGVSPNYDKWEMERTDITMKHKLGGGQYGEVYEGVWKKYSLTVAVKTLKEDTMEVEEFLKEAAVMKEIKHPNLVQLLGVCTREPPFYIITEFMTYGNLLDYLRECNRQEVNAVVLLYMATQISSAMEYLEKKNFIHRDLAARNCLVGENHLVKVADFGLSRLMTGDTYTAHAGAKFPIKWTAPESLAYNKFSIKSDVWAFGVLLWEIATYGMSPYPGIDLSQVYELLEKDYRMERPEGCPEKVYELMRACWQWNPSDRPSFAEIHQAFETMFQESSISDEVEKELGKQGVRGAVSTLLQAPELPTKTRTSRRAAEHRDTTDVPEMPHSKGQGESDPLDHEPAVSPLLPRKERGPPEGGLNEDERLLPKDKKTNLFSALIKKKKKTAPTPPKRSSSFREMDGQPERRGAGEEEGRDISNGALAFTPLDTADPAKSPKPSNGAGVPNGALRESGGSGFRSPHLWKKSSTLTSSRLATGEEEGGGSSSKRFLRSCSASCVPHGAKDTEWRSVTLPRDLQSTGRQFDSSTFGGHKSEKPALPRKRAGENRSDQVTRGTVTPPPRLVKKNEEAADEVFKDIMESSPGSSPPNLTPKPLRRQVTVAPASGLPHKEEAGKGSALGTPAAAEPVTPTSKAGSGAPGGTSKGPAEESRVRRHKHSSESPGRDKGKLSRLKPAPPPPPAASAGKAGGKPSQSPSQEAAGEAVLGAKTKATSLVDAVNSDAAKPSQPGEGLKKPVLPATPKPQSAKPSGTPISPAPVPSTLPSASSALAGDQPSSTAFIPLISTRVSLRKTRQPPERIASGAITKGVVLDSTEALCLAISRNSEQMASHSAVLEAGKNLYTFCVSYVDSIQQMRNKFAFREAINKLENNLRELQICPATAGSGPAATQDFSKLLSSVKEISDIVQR
Chain of Serine/threonine-protein kinase MRCK gamma (Homo sapiens) (Q6DT37 whole entry): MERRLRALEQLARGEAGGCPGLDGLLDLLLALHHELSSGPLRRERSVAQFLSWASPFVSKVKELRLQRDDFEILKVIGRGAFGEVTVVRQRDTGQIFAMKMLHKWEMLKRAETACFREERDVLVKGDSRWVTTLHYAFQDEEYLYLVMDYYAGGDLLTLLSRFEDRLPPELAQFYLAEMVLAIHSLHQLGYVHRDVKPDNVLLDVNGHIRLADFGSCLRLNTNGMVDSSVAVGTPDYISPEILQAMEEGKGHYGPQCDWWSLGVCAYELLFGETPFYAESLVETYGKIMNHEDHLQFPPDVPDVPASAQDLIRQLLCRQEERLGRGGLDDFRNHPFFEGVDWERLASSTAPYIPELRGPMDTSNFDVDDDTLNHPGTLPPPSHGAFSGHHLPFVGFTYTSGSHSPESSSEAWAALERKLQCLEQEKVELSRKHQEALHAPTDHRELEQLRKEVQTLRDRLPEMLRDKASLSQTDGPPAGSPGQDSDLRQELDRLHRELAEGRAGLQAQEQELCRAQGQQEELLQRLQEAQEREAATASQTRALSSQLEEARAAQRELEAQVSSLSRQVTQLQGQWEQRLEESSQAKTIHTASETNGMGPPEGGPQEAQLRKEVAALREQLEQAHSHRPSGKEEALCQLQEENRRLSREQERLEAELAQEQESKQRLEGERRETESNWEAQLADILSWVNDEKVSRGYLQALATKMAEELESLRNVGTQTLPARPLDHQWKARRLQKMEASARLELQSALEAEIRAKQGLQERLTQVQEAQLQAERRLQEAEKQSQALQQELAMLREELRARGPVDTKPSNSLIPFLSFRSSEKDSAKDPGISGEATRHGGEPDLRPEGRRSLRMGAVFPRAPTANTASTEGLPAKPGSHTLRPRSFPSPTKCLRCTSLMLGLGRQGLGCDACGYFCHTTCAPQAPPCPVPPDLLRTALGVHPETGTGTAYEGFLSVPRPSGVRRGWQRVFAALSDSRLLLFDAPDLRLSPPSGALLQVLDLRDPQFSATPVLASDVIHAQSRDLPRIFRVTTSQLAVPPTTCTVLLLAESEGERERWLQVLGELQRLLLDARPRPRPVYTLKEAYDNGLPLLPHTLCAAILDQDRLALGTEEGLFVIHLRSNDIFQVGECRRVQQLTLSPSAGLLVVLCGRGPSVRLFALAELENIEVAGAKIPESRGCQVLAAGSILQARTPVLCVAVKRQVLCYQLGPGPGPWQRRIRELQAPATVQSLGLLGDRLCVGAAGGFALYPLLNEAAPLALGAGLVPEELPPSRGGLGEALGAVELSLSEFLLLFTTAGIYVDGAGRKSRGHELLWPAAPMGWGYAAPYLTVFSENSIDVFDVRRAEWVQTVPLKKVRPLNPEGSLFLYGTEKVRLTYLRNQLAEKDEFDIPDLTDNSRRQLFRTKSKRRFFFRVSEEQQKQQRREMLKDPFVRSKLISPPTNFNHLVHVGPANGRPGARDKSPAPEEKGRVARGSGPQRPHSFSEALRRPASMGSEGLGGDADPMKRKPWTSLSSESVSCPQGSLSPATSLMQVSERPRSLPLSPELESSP
Chain of Testis-specific serine/threonine-protein kinase 1 (Homo sapiens) (Q9BXA7 whole entry): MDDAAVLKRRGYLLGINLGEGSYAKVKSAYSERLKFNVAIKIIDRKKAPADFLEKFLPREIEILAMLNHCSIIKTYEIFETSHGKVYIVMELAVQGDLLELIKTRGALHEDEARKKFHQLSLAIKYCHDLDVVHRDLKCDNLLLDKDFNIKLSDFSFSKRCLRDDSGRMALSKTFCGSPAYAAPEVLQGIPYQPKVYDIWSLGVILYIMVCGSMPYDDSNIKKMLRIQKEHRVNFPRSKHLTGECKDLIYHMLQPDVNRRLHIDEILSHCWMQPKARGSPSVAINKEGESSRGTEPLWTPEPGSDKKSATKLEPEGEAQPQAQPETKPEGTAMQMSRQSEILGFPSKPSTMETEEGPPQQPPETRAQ
Chain of Calcium/calmodulin-dependent protein kinase type 1 (Homo sapiens) (Q14012 whole entry, looked up): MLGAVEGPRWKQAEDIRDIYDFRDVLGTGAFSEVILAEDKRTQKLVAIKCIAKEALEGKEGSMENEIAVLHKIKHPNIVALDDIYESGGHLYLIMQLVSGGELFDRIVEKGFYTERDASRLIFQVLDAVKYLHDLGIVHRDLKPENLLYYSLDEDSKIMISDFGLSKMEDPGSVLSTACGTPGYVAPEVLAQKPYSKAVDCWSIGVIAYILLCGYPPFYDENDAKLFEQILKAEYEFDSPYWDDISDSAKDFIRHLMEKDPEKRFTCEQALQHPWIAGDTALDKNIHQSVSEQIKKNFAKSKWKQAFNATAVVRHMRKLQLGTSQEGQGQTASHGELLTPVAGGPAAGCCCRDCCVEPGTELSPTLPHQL
Chain of Tyrosine-protein kinase ABL1 (Homo sapiens), P00519 [F317L] (P00519 whole entry F317L): as the sequence (P00519 whole entry) above, with F317L counted along it

In the case of `CCC(=O)N[C@H]1CC[C@@H](C(=O)N(C)c2ccc(-c3nc4ccccc4o3)cc2)C1` [BI 99179], the residual activity [1] is reported as 86%, the residual activity [2] is reported as 72% and the residual activity [3] is reported as 100%. The residual activity [4] was 88%, the residual activity [5] was 98% and the residual activity [6] was 95%. For the same compound, the residual activity [7] was 95%, the residual activity [8] was 88% and the residual activity [9] was 100%. It also gave a residual activity [10] of 91%, a residual activity [11] of 87% and a residual activity [12] of 100%. The residual activity [13] was 100%, the residual activity [14] was 87% and the residual activity [15] was 100%. The residual activity [16] was 100%, the residual activity [17] was 91% and the residual activity [18] was 100%. For the same compound, the residual activity [19] was 82%, the residual activity [20] was 74% and the residual activity [21] was 100%. It also gave a residual activity [22] of 100%, a residual activity [23] of 93% and a residual activity [24] of 100%. For the same compound, the residual activity [25] was 98%, the residual activity [26] was 82% and the residual activity [27] was 88%. For the same compound, the residual activity [28] was 90%, the residual activity [29] was 86% and the residual activity [30] was 94%. The residual activity [31] was 100%, the residual activity [32] was 54% and the residual activity [33] was 74%. It also gave a residual activity [34] of 100%, a residual activity [35] of 90% and a residual activity [36] of 98%. The residual activity [37] was 86%, the residual activity [38] was 91% and the residual activity [39] was 100%. The residual activity [40] was 94%, the inhibition [41] was 19.5% and the inhibition [42] was -6.54%. For the same compound, the inhibition [43] was 23.2%.

`CCC(=O)N[C@@H]1CC[C@H](C(=O)N(C)c2ccc(-c3nc4ccccc4o3)cc2)C1` [BI 99990] showed a residual activity [1] of 92%, a residual activity [2] of 96% and a residual activity [3] of 100%. For the same compound, the residual activity [4] was 96%, the residual activity [5] was 100% and the residual activity [6] was 100%. For the same compound, the residual activity [7] was 100%, the residual activity [8] was 100% and the residual activity [9] was 100%. The residual activity [10] was 100%, the residual activity [11] was 100% and the residual activity [12] was 100%. For the same compound, the residual activity [13] was 88%, the residual activity [14] was 96% and the residual activity [15] was 100%. For the same compound, the residual activity [16] was 100%, the residual activity [17] was 100% and the residual activity [18] was 85%. It also gave a residual activity [19] of 93%, a residual activity [20] of 76% and a residual activity [21] of 100%. The residual activity [22] was 100%, the residual activity [23] was 100% and the residual activity [24] was 100%. It also gave a residual activity [25] of 100%, a residual activity [26] of 82% and a residual activity [27] of 100%. It also gave a residual activity [28] of 100%, a residual activity [29] of 57% and a residual activity [30] of 93%. The residual activity [31] was 96%, the residual activity [32] was 45% and the residual activity [33] was 84%. For the same compound, the residual activity [34] was 89%, the residual activity [35] was 93% and the residual activity [36] was 100%. It also gave a residual activity [37] of 100%, a residual activity [38] of 76% and a residual activity [39] of 97%. The residual activity [40] was 73%, the inhibition [41] was 8.28% and the inhibition [42] was 20.4%. For the same compound, the inhibition [43] was 40.3%.
